Source: article PMC12021087, “RFWD3 Reprograms Nucleotide Metabolism Through PHGDH to Induce Chemoresistance In Osteosarcoma” (Advanced Science, 2025)

Target: T1, RFWD3 (Ring Finger and WD Repeat Domain 3) (Homo sapiens, UniProt Q6PCD5)
T1 construct: endogenous full-length protein in whole lysate of 143B osteosarcoma cells, no tag
T1 sequence (Q6PCD5 1-774): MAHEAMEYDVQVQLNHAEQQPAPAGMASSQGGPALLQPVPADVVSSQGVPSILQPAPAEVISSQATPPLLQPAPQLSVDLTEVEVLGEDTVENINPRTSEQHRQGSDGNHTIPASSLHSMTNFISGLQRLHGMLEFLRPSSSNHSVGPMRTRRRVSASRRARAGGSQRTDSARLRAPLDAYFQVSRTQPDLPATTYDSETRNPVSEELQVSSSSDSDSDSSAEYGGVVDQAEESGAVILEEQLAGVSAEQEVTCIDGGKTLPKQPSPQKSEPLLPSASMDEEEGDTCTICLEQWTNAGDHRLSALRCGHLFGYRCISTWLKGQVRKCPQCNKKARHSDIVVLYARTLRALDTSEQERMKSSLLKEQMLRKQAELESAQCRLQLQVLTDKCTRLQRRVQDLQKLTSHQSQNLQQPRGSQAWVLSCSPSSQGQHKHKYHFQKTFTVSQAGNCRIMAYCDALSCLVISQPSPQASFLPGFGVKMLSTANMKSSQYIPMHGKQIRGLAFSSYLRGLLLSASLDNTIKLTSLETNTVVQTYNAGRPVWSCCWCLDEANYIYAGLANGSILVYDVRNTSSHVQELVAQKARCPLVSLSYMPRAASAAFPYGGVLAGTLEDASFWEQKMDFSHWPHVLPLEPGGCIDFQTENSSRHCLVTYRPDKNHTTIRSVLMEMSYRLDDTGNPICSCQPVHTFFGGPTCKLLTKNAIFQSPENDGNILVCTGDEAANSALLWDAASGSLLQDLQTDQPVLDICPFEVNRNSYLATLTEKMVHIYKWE
Assay: CETSA (lysate, Western blot) and DARTS (pronase)
Assay type: biochemical
Settings: 143B cell lysate; CETSA 10 µM lomitapide, 1 h room temperature, heated 5 min; DARTS 1 and 10 µM lomitapide, 4 h, pronase 2 µg/mL

Structure (SMILES): O=C(NC1CCN(CCCCC2(C(=O)NCC(F)(F)F)c3ccccc3-c3ccccc32)CC1)c1ccccc1-c1ccc(C(F)(F)F)cc1 [lomitapide]
- CETSA (lysate, Western blot) and DARTS (pronase): lomitapide protected RFWD3 from pronase degradation and significantly enhanced its thermal stability
